Drawing on US20260297085A1, “1 H-PYRROLO[2,3-B]PYRIDIN-4-YL]-2-OXOPYRROLIDINE-3-CARBONITRILE DERIVATIVES AS TYROSINE KINASE 2 (TYK2) INHIBITORS FOR THE TREATMENT OF INFLAMMATORY DISEASES” (BIOGEN MA INC., priority 2023, published 2026), this text covers IC50 for 19 compounds.

Counter-ions that a name gives are not always drawn.

As a reminder, the IC50 is the concentration that inhibits the measured activity by half.

Common to all, as to details: JH1 kinase domain, ADP-Glo
A general note: ADP-Glo first removes unused ATP, then detects ADP through luciferase.

The target of assay [1] is T1, human TYK2 kinase domain (JH1) (Homo sapiens, UniProt P29597).
T1 construct: recombinantly generated catalytic kinase (also known as JH1) domain of human JAK1, JAK2, JAK3 and TYK2
T1 sequence (P29597 897-1176 limits assumed): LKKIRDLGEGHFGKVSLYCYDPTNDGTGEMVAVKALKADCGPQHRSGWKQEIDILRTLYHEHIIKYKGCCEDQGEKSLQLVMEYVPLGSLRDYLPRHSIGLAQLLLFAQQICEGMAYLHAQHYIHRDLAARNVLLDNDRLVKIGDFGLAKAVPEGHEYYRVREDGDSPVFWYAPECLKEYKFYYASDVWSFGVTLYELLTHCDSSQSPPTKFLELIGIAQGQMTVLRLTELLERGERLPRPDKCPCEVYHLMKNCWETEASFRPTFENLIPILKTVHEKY
In words: JH1 biochemical assay for TYK2 (ADP-Glo kinase assay, recombinant JH1 catalytic domain, JAK3-974 peptide, 10 μM ATP). Summed up: (§1)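 Reactions contain 50 μM peptide and run 100 minutes, with enzyme at 4, 0.2, 0.3 and 2 nM for JAK1, JAK2, JAK3 and TYK2. Generated ADP is read by luminescence; IC50 derives from normalized dose-response curves.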

Assay [2] addresses T2, human JAK1 kinase domain (JH1) (Homo sapiens, UniProt P23458).
T2 construct: recombinantly generated catalytic kinase (also known as JH1) domain of human JAK1, JAK2, JAK3 and TYK2
In words: JH1 biochemical assay for JAK1 (ADP-Glo kinase assay, recombinant JH1 catalytic domain, JAK3-342 peptide, 35 μM ATP). In outline:
as §1

Assay [3] concerns the target T3, human JAK2 kinase domain (JH1) (Homo sapiens, UniProt O60674).
T3 construct: recombinantly generated catalytic kinase (also known as JH1) domain of human JAK1, JAK2, JAK3 and TYK2
Briefly: JH1 biochemical assay for JAK2 (ADP-Glo kinase assay, recombinant JH1 catalytic domain, JAK3-974 peptide, 15 μM ATP). In outline:
as §1

The target in assay [4] is T4, human JAK3 kinase domain (JH1) (Homo sapiens, UniProt P52333).
T4 construct: recombinantly generated catalytic kinase (also known as JH1) domain of human JAK1, JAK2, JAK3 and TYK2
T4 sequence (P52333 822-1111 limits assumed): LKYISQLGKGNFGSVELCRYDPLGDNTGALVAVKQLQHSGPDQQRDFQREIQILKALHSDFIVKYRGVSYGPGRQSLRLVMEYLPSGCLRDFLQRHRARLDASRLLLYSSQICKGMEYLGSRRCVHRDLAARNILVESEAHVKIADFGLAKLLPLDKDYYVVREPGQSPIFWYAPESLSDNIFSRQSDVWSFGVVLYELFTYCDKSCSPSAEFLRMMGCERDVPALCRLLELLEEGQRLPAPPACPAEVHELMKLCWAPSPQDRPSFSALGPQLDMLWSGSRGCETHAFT
In words: JH1 biochemical assay for JAK3 (ADP-Glo kinase assay, recombinant JH1 catalytic domain, JAK3-974 peptide, 4 μM ATP). Summed up:
as §1

T3 sequence (O60674 849-1124 limits assumed): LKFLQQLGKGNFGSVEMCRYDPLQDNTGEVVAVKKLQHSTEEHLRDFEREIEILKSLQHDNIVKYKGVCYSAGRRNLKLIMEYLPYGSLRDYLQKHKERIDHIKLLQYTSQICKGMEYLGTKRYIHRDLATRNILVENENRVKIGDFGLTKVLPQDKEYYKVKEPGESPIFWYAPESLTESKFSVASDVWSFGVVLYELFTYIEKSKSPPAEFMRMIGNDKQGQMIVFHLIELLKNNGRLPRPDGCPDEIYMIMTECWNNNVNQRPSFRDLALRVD
T2 sequence (P23458 875-1153 limits assumed): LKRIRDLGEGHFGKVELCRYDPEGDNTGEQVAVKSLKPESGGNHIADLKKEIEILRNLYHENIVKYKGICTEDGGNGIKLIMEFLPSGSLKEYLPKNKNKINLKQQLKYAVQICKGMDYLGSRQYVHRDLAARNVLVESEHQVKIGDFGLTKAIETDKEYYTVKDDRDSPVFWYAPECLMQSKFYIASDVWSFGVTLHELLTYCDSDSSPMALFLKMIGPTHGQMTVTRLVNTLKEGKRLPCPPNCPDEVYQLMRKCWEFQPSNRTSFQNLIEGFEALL

Regarding `C[C@@H]1CN(c2ccnn3cc(-c4cccc5nccn45)cc23)C(=O)[C@]1(C#N)C1CC1` [Example 141, (3R,4S)-3-cyclopropyl-1-(6-(imidazo[1,2-a]pyridin-5-yl)pyrrolo[1,2-b]pyridazin-4-yl)-4-methyl-2-oxopyrrolidine-3-carbonitrile trifluoroacetate], the IC50 in assay [1] lay within 0.02 to 0.05 µM; in assay [2], 1 to 5 µM; in assay [3], 1 to 5 µM; in assay [4], 1 to 5 µM.
Take `Cc1cc(-c2cc3c(N4C[C@@H](C)[C@@](C#N)(C5CC5)C4=O)ccnn3c2)ncc1F` [Example 142, (3R,4S)-3-cyclopropyl-1-(6-(5-fluoro-4-methylpyridin-2-yl)pyrrolo[1,2-b]pyridazin-4-yl)-4-methyl-2-oxopyrrolidine-3-carbonitrile trifluoroacetate]: the IC50 in assay [1] lay in the range of 0.02 to 0.05 µM; in assay [2], 1 to 5 µM; in assay [3], 1 to 5 µM; in assay [4], 1 to 5 µM.
Turning to `COc1cccc(-c2cc3c(N4C[C@@H](C)[C@@](C#N)(C5CC5)C4=O)ccnn3c2)n1` [Example 143, (3R,4S)-3-cyclopropyl-1-(6-(6-methoxypyridin-2-yl)pyrrolo[1,2-b]pyridazin-4-yl)-4-methyl-2-oxopyrrolidine-3-carbonitrile trifluoroacetate], the IC50 in assay [1] is 0.02 to 0.05 µM; in assay [2], 0.1 to 1 µM; in assay [3], 1 to 5 µM; in assay [4] it was 0.1 to 1 µM.
Regarding `Cc1cc(-c2cc3c(N4C[C@@H](C)[C@@](C#N)(C5CC5)C4=O)ccnn3c2)ncc1C#N` [Example 144, 6-(4-((3R,4S)-3-cyano-3-cyclopropyl-4-methyl-2-oxopyrrolidin-1-yl)pyrrolo[1,2-b]pyridazin-6-yl)-4-methylnicotinonitrile trifluoroacetate], the 50% inhibitory concentration (IC50) in assay [1] was 0.02 to 0.05 µM; in assay [2] it was 1 to 5 µM; in assay [3] it was 1 to 5 µM; in assay [4] it was 1 to 5 µM.
With `COc1cccnc1-c1cc2c(N3C[C@@H](C)[C@@](C#N)(C4CC4)C3=O)ccnn2c1` [Example 146, (3R,4S)-3-cyclopropyl-1-(6-(3-methoxypyridin-2-yl)pyrrolo[1,2-b]pyridazin-4-yl)-4-methyl-2-oxopyrrolidine-3-carbonitrile trifluoroacetate], the IC50 in assay [1] is more than 0.1 µM; in assay [2], 1 to 5 µM; in assay [3], 5 to 10 µM; in assay [4], 5 to 10 µM.
As to `Cc1nc(-c2cc3c(N4C[C@@H](C)[C@@](C#N)(C5CC5)C4=O)ccnn3c2)ccc1F` [Example 147, (3R,4S)-3-cyclopropyl-1-(6-(5-fluoro-6-methylpyridin-2-yl)pyrrolo[1,2-b]pyridazin-4-yl)-4-methyl-2-oxopyrrolidine-3-carbonitrile trifluoroacetate], the IC50 in assay [1] was in the range of 0.005 to 0.02 µM; in assay [2], 0.1 to 1 µM; in assay [3], 0.1 to 1 µM; in assay [4] it was 0.1 to 1 µM.
For `C[C@@H]1CN(c2ccnn3cc(-c4cc(CO)ccn4)cc23)C(=O)[C@]1(C#N)C1CC1` [Example 148, (3R,4S)-3-cyclopropyl-1-(6-(4-(hydroxymethyl)pyridin-2-yl)pyrrolo[1,2-b]pyridazin-4-yl)-4-methyl-2-oxopyrrolidine-3-carbonitrile trifluoroacetate], the IC50 is 0.02 to 0.05 µM in assay [1], 0.1 to 1 µM in assay [2], 0.1 to 1 µM in assay [3] and 0.1 to 1 µM in assay [4].
As for `C[C@@H]1CN(c2ccnn3cc(-c4ncccc4O)cc23)C(=O)[C@]1(C#N)C1CC1` [Example 149, (3R,4S)-3-cyclopropyl-1-(6-(3-hydroxypyridin-2-yl)pyrrolo[1,2-b]pyridazin-4-yl)-4-methyl-2-oxopyrrolidine-3-carbonitrile trifluoroacetate], the IC50 lay in the range of 0.02 to 0.05 µM in assay [1], 1 to 5 µM in assay [2], 5 to 10 µM in assay [3] and 1 to 5 µM in assay [4].
For the compound `C[C@@H]1CN(c2ccnn3cc(-c4ccc(CO)cn4)cc23)C(=O)[C@]1(C#N)C1CC1` [Example 150, (3R,4S)-3-cyclopropyl-1-(6-(5-(hydroxymethyl)pyridin-2-yl)pyrrolo[1,2-b]pyridazin-4-yl)-4-methyl-2-oxopyrrolidine-3-carbonitrile trifluoroacetate], the IC50 in assay [1] lay within 0.005 to 0.02 µM; in assay [2], 0.1 to 1 µM; in assay [3], 0.1 to 1 µM; in assay [4], 0.1 to 1 µM.
`C[C@@H]1CN(c2ccnn3cc(-c4cnccn4)cc23)C(=O)[C@]1(C#N)C1CC1` [Example 151, (3R,4S)-3-cyclopropyl-4-methyl-2-oxo-1-(6-(pyrazin-2-yl)pyrrolo[1,2-b]pyridazin-4-yl)pyrrolidine-3-carbonitrile trifluoroacetate]: the IC50 in assay [1] lay within 0.05 to 0.1 µM; in assay [2], 1 to 5 µM; in assay [3], 1 to 5 µM; in assay [4], 1 to 5 µM.
With `C[C@@H]1CN(c2ccnn3cc(-c4cnn5c4CCCC5)cc23)C(=O)[C@]1(C#N)C1CC1` [Example 173, (3R,4S)-3-cyclopropyl-4-methyl-2-oxo-1-(6-(4,5,6,7-tetrahydropyrazolo[1,5-a]pyridin-3-yl)pyrrolo[1,2-b]pyridazin-4-yl)pyrrolidine-3-carbonitrile], the IC50 in assay [1] lay in the range of 0.005 to 0.02 µM; in assay [2], 0.1 to 1 µM; in assay [3], 0.1 to 1 µM; in assay [4], 0.1 to 1 µM.
As for `CCc1ccncc1-c1cc2c(N3C[C@@H](C)[C@@](C#N)(C4CC4)C3=O)ccnn2c1` [Example 175, (3R,4S)-3-cyclopropyl-1-(6-(4-ethylpyridin-3-yl)pyrrolo[1,2-b]pyridazin-4-yl)-4-methyl-2-oxopyrrolidine-3-carbonitrile trifluoroacetate], the half-maximal inhibitory concentration (IC50) was more than 0.1 µM in assay [1], 5 to 10 µM in assay [2], more than 10 µM in assay [3] and more than 10 µM in assay [4].
`C[C@@H]1CN(c2ccnn3cc(-c4cncc(OC(F)F)c4)cc23)C(=O)[C@]1(C#N)C1CC1` [Example 177, (3R,4S)-3-cyclopropyl-1-(6-(5-(difluoromethoxy)pyridin-3-yl)pyrrolo[1,2-b]pyridazin-4-yl)-4-methyl-2-oxopyrrolidine-3-carbonitrile]: the IC50 in assay [1] lay in the range of 0.02 to 0.05 µM; in assay [2], 0.1 to 1 µM; in assay [3], 1 to 5 µM; in assay [4] it was 1 to 5 µM.
Turning to `CCc1ncccc1-c1cc2c(N3C[C@@H](C)[C@@](C#N)(C4CC4)C3=O)ccnn2c1` [Example 178, (3R,4S)-3-cyclopropyl-1-(6-(2-ethylpyridin-3-yl)pyrrolo[1,2-b]pyridazin-4-yl)-4-methyl-2-oxopyrrolidine-3-carbonitrile trifluoroacetate], the IC50 was more than 0.1 µM in assay [1], 5 to 10 µM in assay [2], more than 10 µM in assay [3] and 5 to 10 µM in assay [4].
For the compound `C[C@@H]1CN(c2ccnn3cc(-c4cnccc4C(F)(F)F)cc23)C(=O)[C@]1(C#N)C1CC1` [Example 179, (3R,4S)-3-cyclopropyl-4-methyl-2-oxo-1-(6-(4-(trifluoromethyl)pyridin-3-yl)pyrrolo[1,2-b]pyridazin-4-yl)pyrrolidine-3-carbonitrile], the IC50 in assay [1] is more than 0.1 µM; in assay [2], more than 10 µM; in assay [3], more than 10 µM; in assay [4], more than 10 µM.
For `C[C@@H]1CN(c2ccnn3c(F)c(-c4cnn(C)c4)nc23)C(=O)[C@]1(C#N)C1CC1` [Example 183, (3R,4S)-3-cyclopropyl-1-(3-fluoro-2-(1-methyl-1H-pyrazol-4-yl)imidazo[1,2-b]pyridazin-8-yl)-4-methyl-2-oxopyrrolidine-3-carbonitrile], the IC50 in assay [1] is more than 0.1 µM; in assay [2], more than 10 µM; in assay [3], more than 10 µM; in assay [4], more than 10 µM.
In the case of `COc1cc(-c2cn3nccc3c(N3C[C@@H](C)[C@@](C#N)(C4CC4)C3=O)n2)c(F)cn1` [Example 196, (3R,4S)-3-cyclopropyl-1-(6-(5-fluoro-2-methoxypyridin-4-yl)pyrazolo[1,5-a]pyrazin-4-yl)-4-methyl-2-oxopyrrolidine-3-carbonitrile], the half-inhibitory concentration (IC50) is 0.02 to 0.05 µM in assay [1], 0.1 to 1 µM in assay [2], 1 to 5 µM in assay [3] and 0.1 to 1 µM in assay [4].
As for `Cc1nn(C)c(C)c1-c1cn2nccc2c(N2C[C@@H](C)[C@@](C#N)(C3CC3)C2=O)n1` [Example 200, (3R,4S)-3-cyclopropyl-4-methyl-2-oxo-1-(6-(1,3,5-trimethyl-1H-pyrazol-4-yl)pyrazolo[1,5-a]pyrazin-4-yl)pyrrolidine-3-carbonitrile], the IC50 in assay [1] was 0.02 to 0.05 µM; in assay [2], 0.1 to 1 µM; in assay [3] it was 1 to 5 µM; in assay [4], 0.1 to 1 µM.
Consider `C[C@@H]1CN(c2nc(-c3ncccc3F)cn3nccc23)C(=O)[C@]1(C#N)C1CC1` [Example 212, (3R,4S)-3-cyclopropyl-1-(6-(3-fluoropyridin-2-yl)pyrazolo[1,5-a]pyrazin-4-yl)-4-methyl-2-oxopyrrolidine-3-carbonitrile], for which the IC50 in assay [1] is 0.05 to 0.1 µM; in assay [2], 1 to 5 µM; in assay [3] it was more than 10 µM; in assay [4], 1 to 5 µM.
